{"source": "patent US20080045504A1", "about": "“Benzonitrile Derivatives to Treat Musculoskeletal Frailty” (PFIZER PRODUCTS INC., priority 2004, published 2008)", "key": {"[1]": {"test_system": "orchiectomized (ORX) immature male rat", "test": "Orchiectomized immature rat assay (levator ani and ventral prostate weights)", "format": "in vivo, Sprague Dawley rat", "settings": "4 days, TP 10 mg/kg = 100%, ORX control = 0%; for % TP Control LA: levator ani weight; for % TP Control VP: ventral prostate weight", "experimental": "All animal studies were performed in accordance with the Guide for Care and Use of Laboratory Animals (National Research Council, 1996). Twenty-one day old male Sprague Dawley rats were acquired from Taconic, Inc, Germantown, N.Y. Rats were housed five per cage at standard vivarium conditions ([…], 12-h light/dark cycle), with normal chow diet and tap water ad libitum. At 25 days of age, the rats underwent bilateral orchiectomy surgery (ORX) after sedation with 3-5% Isoflurane. Following the surgery, the animals were treated immediately by daily subcutaneous (s.c.) injection with vehicle (sesame oil), testosterone propionate (TP, 10 mg/kg) and test compounds. The dosage of test compound administered is in mg/kg. At the end of the 4 days of administrations, the animals were sacrificed in a carbon dioxide chamber, the ventral prostate (VP) and levator ani muscle complex (LA) were removed and weighed. The increase in the weights of VP or LA by TP was expressed as 100%, and the ORX control as baseline, 0%; the response of the test compounds was calculated as the percentage increase compared to TP."}, "[2]": {"test_system": "aged intact or orchidectomized (ORX) male rat", "test": "Effect on body weight, body composition and bone density in the aged intact and orchidectomized male rat", "format": "in vivo, SD rat", "experimental": "The purpose of this study is to test the effects of test compound in aged intact or orchidectomized (ORX) male rat model.\nMale SD rats at 11 months of age were sham-operated or ORX. One day post-surgery they were treated with test compound by subcutaneous injections (s.c.) at the average dose of 3 or 10 mg/kg per day for 8 weeks. The subcutaneous injections were given 2 times (Tuesday and Friday) per week with the first injection (Tuesday) at 9 or 30 mg/kg (in sesame oil, total 0.3 ml), and the second injection (Friday) at 12 or 40 mg/kg (in sesame oil, total 0.4 ml). All rats were injected subcutaneously with calcein at 10 mg/kg on 12 and 2 days before necropsy."}, "[3]": {"test_system": "aged ovariectomized (OVX) female rat", "test": "Effect on body weight, body composition and bone density in the aged ovariectomized female rat", "format": "in vivo, Sprague-Dawley rat", "settings": "OVX rats", "experimental": "Effect of Selective Androgen Receptor Modulator on Body Weight. Body Composition and Bone Density in the Aged Intact and Ovariectomized Female Rat The purpose of this study is to test the effects of test compound in aged intact or ovariectomized (OVX) female rat model.\nSprague-Dawley female rats were sham-operated or OVX at 18 months of age, while a group of rats was necropsied at day 0 to serve as baseline controls. One day post-surgery, the rats were treated with either vehicle or test compound. The vehicle or test compound was administered twice a week (Tuesday and Friday) by subcutaneous injection (s.c.), with the test compound being administered at an average dose of 10 milligrams per kilogram of body weight per day (10 mg/kg/day).\nAll rats were given s.c. injection of 10 mg/kg of calcein (Sigma, St. Louis, Mo.) for fluorescent bone label 2 and 12 days before necropsy. On the day of necropsy, all rats under ketamine/xylazine anesthesia were weighed and underwent dual-energy X-ray absorptiometry (DXA, QDR-4500/W, Hologic Inc., Waltham, Mass.) equipped with Rat Whole Body Scan software for lean and fat body mass determination. The rats were necropsied, then autopsied and blood was obtained by cardiac puncture. The distal femoral metaphysis and femoral shafts from each rat were analyzed by peripheral quantitative computerized tomography (pQCT), and volumetric total, trabecular and cortical bone mineral content and density were determined.\nPeripheral Quantitative Computerized Tomography (pQCT) Analysis: Excised femurs were scanned by a pQCT X-ray machine (Stratec XCT Research M, Norland Medical Systems, Fort Atkinson, Wis.) with software version 5.40. A 1 millimeter (mm) thick cross section of the femur metaphysis was taken at 5.0 mm ([…], a primary cancellous bone site) and 13 mm (femoral shafts, a cortical bone site) proximal from the distal end with a voxel size of 0.10 mm. Cortical bone was defined and analyzed using contour mode 2 and cortical mode 4. An outer threshold setting of 340 mg/cm^3 was used to distinguish the cortical shell from soft tissue and an inner threshold of 529 mg/cm^3 to distinguish cortical bone along the endocortical surface. Trabecular bone was determined using peel mode 4 with a threshold of 655 mg/cm^3 to distinguish (sub)cortical from cancellous bone. An additional concentric peel of 1% of the defined cancellous bone was used to ensure that (sub)cortical bone was eliminated from the analysis. Volumetric content, density, and area were determined for both trabecular and cortical bone (Jamsa T. et al., Bone 23:155-161, 1998; Ke, H. Z. et al., Journal of Bone and Mineral Research, 16:765-773, 2001). Using the above setting, it was determined that the ex vivo precision of volumetric content, density and area of total bone, trabecular, and cortical regions ranged from 0.99% to 3.49% with repositioning.\nThe preceding protocol was carried out using the compound of Example 1 as the test compound. The vehicle employed in experimental groups II-IV was 100% sesame oil. The rats in groups II-IV were dosed s.c. twice a week (on Tuesday and Friday) with 0.3 ml and 0.4 ml. This dosing provided an average daily dose of 10 mg/kg/day of the compound of Example 1 for experimental group IV.\nThe values provided in Table 3 are the mean values±the standard error measurement. In Table 3 and the experimental protocol the following abbreviations or symbols had the following definitions. DFM: distal femoral metaphysis; FS: femoral shafts; g: grams; mg/cm^3: milligrams per cubic centimeter; mg/mm: milligrams per millimeter; a: p<0.05 vs. Baseline; b: p<0.05 vs. Sham; c: p<0.05 vs. OVX; mg/kg/day: milligrams per kilogram of body weight per day; and ml: milliliter."}, "[4]": {"settings": "Group II (sham, 3 mg/kg/d) compared to Group I (sham + vehicle)"}, "[5]": {"settings": "sham and ORX rats, 3 or 10 mg/kg/d s.c. for 8 weeks"}, "[6]": {"settings": "sham and ORX rats, 3 or 10 mg/kg/d s.c. for 8 weeks, dose dependant, except Group II"}, "[7]": {"settings": "10 mg/kg/day s.c. twice a week, DXA, mean ± SEM"}, "[8]": {"settings": "10 mg/kg/day s.c., distal femoral metaphysis, pQCT, mean ± SEM"}, "[9]": {"settings": "10 mg/kg/day s.c., femoral shafts, pQCT, mean ± SEM"}, "[10]": {"settings": "10 mg/kg/day, compared to OVX rats administered vehicle"}}, "note": "Marks after values point to notes of the source that are not given here."}
{"molecule": "CC[C@H]1CCCCN1c1ccc(C#N)c(C(F)(F)F)c1", "note": "[Example 1, 4-(2-(S)-Ethyl-piperidin-1-yl)-2-trifluoromethyl-benzonitrile]", "values": [{"measurement": "% TP Control LA", "setting": "[1]; 3 mg/kg s.c.", "result": 53, "unit": "%"}, {"measurement": "% TP Control LA", "setting": "[1]; 10 mg/kg s.c.", "result": 93, "unit": "%"}, {"measurement": "% TP Control LA", "setting": "[1]; 30 mg/kg s.c.", "result": 100, "unit": "%"}, {"measurement": "% TP Control VP", "setting": "[1]; 3 mg/kg s.c.", "result": 11, "unit": "%"}, {"measurement": "% TP Control VP", "setting": "[1]; 10 mg/kg s.c.", "result": 30, "unit": "%"}, {"measurement": "% TP Control VP", "setting": "[1]; 30 mg/kg s.c.", "result": 33, "unit": "%"}, {"measurement": "fat body mass", "setting": "[2]; [4]", "result": "slight increase"}, {"measurement": "lean body mass", "setting": "[2]; [4]", "result": "slight decrease"}, {"measurement": "prostate weight", "setting": "[2]; Group II sham rats (3 mg/kg/d)", "result": "did not increase"}, {"measurement": "prostate weight", "setting": "[2]; Group III (sham, 10 mg/kg/d) compared to Group I", "result": "slight increase"}, {"measurement": "prostate weight", "setting": "[2]; ORX rats, 3 or 10 mg/kg/d, dose dependent", "result": "increased prostate weight in ORX rats to the level of sham controls"}, {"measurement": "levitor anni weight", "setting": "[2]; [5]", "result": "increased"}, {"measurement": "total density in the femoral shaft (FS)", "setting": "[2]; [5]", "result": "increased"}, {"measurement": "trabecular density in the distal femoral metaphysis (DFM)", "setting": "[2]; [5]", "result": "increased"}, {"measurement": "fat body mass", "setting": "[2]; [6]", "result": "decreased"}, {"measurement": "lean body mass", "setting": "[2]; [6]", "result": "increased"}, {"measurement": "Body Weight", "setting": "[3]; 10 mg/kg/day s.c. twice a week in sesame oil, mean ± SEM", "result": "459 ± 10.7^b,c g"}, {"measurement": "Fat Body Mass", "setting": "[3]; [7]", "result": "121.7 ± 7.9^c g"}, {"measurement": "lean body mass", "setting": "[3]; [7]", "result": "319.0 ± 7.7^c g"}, {"measurement": "Total Density of DFM", "setting": "[3]; [8]", "result": "602.2 ± 12.3^b mg/cm^3"}, {"measurement": "Trabecular Density of DFM", "setting": "[3]; [8]", "result": "310.4 ± 0.16", "unit": "mg/mL"}, {"measurement": "Cortical Content of FS", "setting": "[3]; [9]", "result": "11.8 ± 0.15^c mg/mm"}, {"measurement": "Total Content of FS", "setting": "[3]; [9]", "result": "11.9 ± 0.16^c mg/mm"}, {"measurement": "effect on body weight", "setting": "[3]; [10]", "result": "negligible effect"}, {"measurement": "effect on fat body mass", "setting": "[3]; [10]", "result": "significantly decreased"}, {"measurement": "effect on lean body mass", "setting": "[3]; [10]", "result": "significantly increased"}]}
